Experimental data reported in patent US20150273057A1, “Combination” (GLAXOSMITHKLINE LLC, priority 2012, published 2015).

Key:
Test in all cases: Cell growth inhibition assay (Cell Titer Glo, 7 days)
Assay type in all cases: cell-based, Human
[1] = system: LS411N; conditions: LS411N BRAF V600E mutant CRC line, relative to vehicle (DMSO)
Protocol: (§1) Human colon tumor lines, Colo-205, HT-29, RKO, SW1417, LS411N and human melanoma line A375 were from ATCC. All lines were cultured in RPMI 1640 medium containing 10% fetal bovine serum (FBS).
(§2) All cells were cultured for a minimum of 72 hours prior to cell plating. Cells were assayed in a 96-well tissue culture plate (NUNC 136102) of RPMI medium containing 10% FBS for all cells at 500 cells per well. […] ATP levels were determined by adding Cell Titer Glo® (Promega) according to the manufacturer's protocol. Briefly, Cell Titer Glo0 was added to each plate, incubated for 30 minutes then luminescent signal was read on the SpectraMax L plate reader with a 0.5 sec integration time.
(§3) Inhibition of cell growth was estimated after treatment with compound or combination of compounds for 7 days and comparing the signal to cells treated with vehicle (DMSO). Cell growth was calculated relative to vehicle (DMSO) treated control wells.

[2] = system: HT-29; conditions: HT-29 BRAF V600E mutant CRC line, relative to vehicle (DMSO)
Protocol: as §1, §2, §3

[3] = system: SW1417; conditions: SW1417 BRAF V600E mutant CRC line, relative to vehicle (DMSO)
Protocol: as §1, §2, §3

[4] = system: A375; conditions: A375 melanoma line, relative to vehicle (DMSO)
Protocol: as §1, §2, §3

[5] = system: Colo-205; conditions: Colo-205 BRAF V600E mutant CRC line, relative to vehicle (DMSO)
Protocol: as §1, §2, §3

[6] = system: RKO; conditions: RKO BRAF V600E mutant CRC line, relative to vehicle (DMSO)
Protocol: as §1, §2, §3

CC(=O)Nc1cccc(-n2c(=O)n(C3CC3)c(=O)c3c(Nc4ccc(I)cc4F)n(C)c(=O)c(C)c32)c1 [Compound A, N-{3-[3-cyclopropyl-5-(2-fluoro-4-iodo-phenylamino)6,8-dimethyl-2,4,7-trioxo-3,4,6,7-tetrahydro-2H-pyrido[4,3-d]pyrimidin-1-yl]phenyl}acetamide]
cell growth inhibition, agent alone [1]: sensitive
cell growth inhibition, agent alone [2]: sensitive
cell growth inhibition, agent alone [3]: resistant
cell growth inhibition, agent alone [4]: sensitive
cell growth inhibition, agent alone [5]: sensitive
cell growth inhibition, agent alone [6]: resistant

CC(C)(C)c1nc(-c2cccc(NS(=O)(=O)c3c(F)cccc3F)c2F)c(-c2ccnc(N)n2)s1 [Compound B, N-{3-[5-(2-Amino-4-pyrimidinyl)-2-(1,1-dimethylethyl)-1,3-thiazol-4-yl]-2-fluorophenyl}-2,6-difluorobenzenesulfonamide]
cell growth inhibition, agent alone [1]: sensitive
cell growth inhibition, agent alone [2]: sensitive
cell growth inhibition, agent alone [3]: resistant
cell growth inhibition, agent alone [4]: sensitive
cell growth inhibition, agent alone [5]: sensitive
cell growth inhibition, agent alone [6]: resistant

C#Cc1cccc(Nc2ncnc3cc(OCCOC)c(OCCOC)cc23)c1 [erlotinib, reference compound]
cell growth inhibition, agent alone [1]: inactive
cell growth inhibition, agent alone [2]: inactive
cell growth inhibition, agent alone [3]: inactive
cell growth inhibition, agent alone [4]: inactive
cell growth inhibition, agent alone [5]: inactive
cell growth inhibition, agent alone [6]: inactive
